molecular target: WT EZH2 (EZH2 4 protein complex: EZH2, EED, SUZ12, RbAp48) (Homo sapiens, UniProt O75530+Q09028+Q15022+Q15910); assay: WT EZH2 nucleosome assay; type: biochemical; settings: nucleosome assay, 5 nM EZH2 4-protein complex, 1.5 μM SAM; read-out: WT EZH2 IC50
How it was run: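 IC50 values come from 4-parameter fits of 11-point dose responses, with % effect also given at 20 μM. Reactions held HeLa oligonucleosomes (25 μg/mL), rH1 (50 nM), 1.5 μM tritiated SAM and 5 nM enzyme complex at pH 8.5 Tris/DTT/Tween; stopped by TCA after 60 min, filtered and scintillation-counted.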

WT EZH2 (EZH2 4 protein complex: EZH2, EED, SUZ12, RbAp48), sequence (Q15910 whole entry): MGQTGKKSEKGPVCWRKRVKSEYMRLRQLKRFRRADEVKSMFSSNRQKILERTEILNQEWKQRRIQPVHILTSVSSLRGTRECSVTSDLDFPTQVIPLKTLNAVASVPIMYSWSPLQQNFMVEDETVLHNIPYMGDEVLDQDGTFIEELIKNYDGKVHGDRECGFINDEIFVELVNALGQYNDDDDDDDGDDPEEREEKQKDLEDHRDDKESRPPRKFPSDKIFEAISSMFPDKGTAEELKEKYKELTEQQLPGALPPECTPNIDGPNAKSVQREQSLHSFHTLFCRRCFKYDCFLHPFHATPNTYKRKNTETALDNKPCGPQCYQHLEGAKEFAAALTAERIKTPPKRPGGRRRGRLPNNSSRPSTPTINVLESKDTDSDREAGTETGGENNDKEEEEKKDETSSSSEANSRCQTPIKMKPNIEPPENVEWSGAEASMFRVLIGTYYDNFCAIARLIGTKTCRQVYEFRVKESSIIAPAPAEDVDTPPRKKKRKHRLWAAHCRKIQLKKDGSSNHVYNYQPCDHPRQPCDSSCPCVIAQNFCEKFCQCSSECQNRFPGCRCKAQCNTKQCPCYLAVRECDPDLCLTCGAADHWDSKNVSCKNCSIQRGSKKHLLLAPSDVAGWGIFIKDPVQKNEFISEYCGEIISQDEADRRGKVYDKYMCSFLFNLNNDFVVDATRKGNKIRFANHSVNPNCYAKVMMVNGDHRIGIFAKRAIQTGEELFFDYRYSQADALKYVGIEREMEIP
WT EZH2 (EZH2 4 protein complex: EZH2, EED, SUZ12, RbAp48), sequence (O75530 whole entry partner): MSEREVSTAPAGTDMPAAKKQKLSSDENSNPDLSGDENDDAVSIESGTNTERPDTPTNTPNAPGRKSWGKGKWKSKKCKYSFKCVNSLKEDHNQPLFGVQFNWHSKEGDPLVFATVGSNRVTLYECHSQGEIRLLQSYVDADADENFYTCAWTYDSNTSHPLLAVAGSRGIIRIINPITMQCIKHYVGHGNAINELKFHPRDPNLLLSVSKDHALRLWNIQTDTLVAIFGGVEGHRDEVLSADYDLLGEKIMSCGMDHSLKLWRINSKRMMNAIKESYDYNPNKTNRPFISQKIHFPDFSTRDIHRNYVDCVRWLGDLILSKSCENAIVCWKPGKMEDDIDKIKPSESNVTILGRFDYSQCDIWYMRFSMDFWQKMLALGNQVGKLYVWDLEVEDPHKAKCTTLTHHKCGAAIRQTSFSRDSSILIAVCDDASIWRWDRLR
WT EZH2 (EZH2 4 protein complex: EZH2, EED, SUZ12, RbAp48), sequence (Q15022 whole entry partner): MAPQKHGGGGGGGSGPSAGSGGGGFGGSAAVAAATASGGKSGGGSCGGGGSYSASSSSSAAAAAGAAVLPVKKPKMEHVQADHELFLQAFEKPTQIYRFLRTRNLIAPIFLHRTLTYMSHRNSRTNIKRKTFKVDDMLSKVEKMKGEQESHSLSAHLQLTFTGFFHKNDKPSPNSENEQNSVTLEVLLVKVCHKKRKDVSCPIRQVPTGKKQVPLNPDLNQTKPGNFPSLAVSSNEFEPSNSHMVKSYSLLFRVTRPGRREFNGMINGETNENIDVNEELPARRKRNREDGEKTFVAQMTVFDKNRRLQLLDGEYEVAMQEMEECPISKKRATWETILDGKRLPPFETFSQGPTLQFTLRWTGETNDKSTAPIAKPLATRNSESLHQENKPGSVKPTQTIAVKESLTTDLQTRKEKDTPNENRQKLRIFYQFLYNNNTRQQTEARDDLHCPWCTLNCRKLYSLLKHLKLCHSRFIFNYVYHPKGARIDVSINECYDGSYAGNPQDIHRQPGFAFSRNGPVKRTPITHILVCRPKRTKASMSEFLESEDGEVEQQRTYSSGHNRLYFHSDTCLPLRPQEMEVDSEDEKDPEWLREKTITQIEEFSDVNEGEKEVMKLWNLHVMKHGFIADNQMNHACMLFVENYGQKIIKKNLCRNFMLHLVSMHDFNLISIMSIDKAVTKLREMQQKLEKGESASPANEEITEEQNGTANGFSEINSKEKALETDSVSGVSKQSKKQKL
WT EZH2 (EZH2 4 protein complex: EZH2, EED, SUZ12, RbAp48), sequence (Q09028 whole entry partner): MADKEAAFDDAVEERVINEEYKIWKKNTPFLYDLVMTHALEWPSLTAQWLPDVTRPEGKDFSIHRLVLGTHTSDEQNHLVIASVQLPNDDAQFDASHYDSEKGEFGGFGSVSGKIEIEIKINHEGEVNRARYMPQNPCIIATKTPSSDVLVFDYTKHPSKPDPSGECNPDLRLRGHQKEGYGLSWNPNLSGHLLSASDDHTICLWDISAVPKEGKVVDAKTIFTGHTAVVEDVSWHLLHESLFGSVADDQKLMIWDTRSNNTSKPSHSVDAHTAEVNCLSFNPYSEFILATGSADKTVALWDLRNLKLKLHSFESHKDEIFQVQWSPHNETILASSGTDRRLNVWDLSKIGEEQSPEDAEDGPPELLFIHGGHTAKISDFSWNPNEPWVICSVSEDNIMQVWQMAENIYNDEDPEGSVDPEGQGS

SMILES | IC50 [µM]
Cc1cc(C)c(CNC(=O)c2ccnc(N3[C@H](C)CC[C@@H]3C)c2Cl)c(=O)[nH]1 [Example 97, 3-chloro-N-[(4,6-dimethyl-2-oxo-1,2-dihydropyridin-3-yl)methyl]-2-[(2R,5S)-2,5-dimethylpyrroli-din-1-yl]iso-nicotinamide] | 16.9
Cc1cc(C)c(CNC(=O)c2nc(OCCN3CCC(F)(F)CC3)nc(-c3ccnn3C)c2C)c(=O)[nH]1 [Example 98, 2-[2-(4,4-difluoropiperi-din-1-yl)ethoxy]-N-[(4,6-dimethyl-2-oxo-1,2-dihydropyridin-3-yl)methyl]-5-methyl-6-(1-methyl-1H-pyrazol-5-yl)pyrimidine-4-carboxamide] | 17.3
Cc1cc(C(=O)NCc2c(C)cc(C)[nH]c2=O)c(C#N)c(OC(C)C)n1 [Example 99, 3-cyano-N-[(4,6-dimethyl-2-oxo-1,2-dihydropyridin-3-yl)methyl]-2-isopropoxy-6-methyliso-nicotinamide] | 17.6
Cc1cc(C)c(CNC(=O)c2nc(OC(C)C)nc(-c3ccnn3C)c2C)c(=O)[nH]1 [Example 100, N-[(4,6-dimethyl-2-oxo-1,2-dihydropyridin-3-yl)methyl]-2-isopropoxy-5-methyl-6-(1-methyl-1H-pyrazol-5-yl)pyrimidine-4-carboxamide] | 17.6
Cc1cc(C)c(CNC(=O)c2nc(OCCN3CC[C@H](F)C3)nc(-c3ccnn3C)c2C)c(=O)[nH]1 [Example 101, N-[(4,6-dimethyl-2-oxo-1,2-dihydropyridin-3-yl)methyl]-2-{2-[(3S)-3-fluoropyrrolidin-1-yl]ethoxy}-5-methyl-6-(1-methyl-1H-pyrazol-5-yl)pyrimidine-4-carboxamide] | 18.4
CCOc1nc(C(=O)NCc2c(C)cc(C)[nH]c2=O)c(C)c(-c2ccnn2C)n1 [Example 102, N-[(4,6-dimethyl-2-oxo-1,2-dihydropyridin-3-yl)methyl]-2-ethoxy-5-methyl-6-(1-methyl-1H-pyrazol-5-yl)pyrimidine-4-carboxamide] | 18.6
Cc1cc(C)c(CNC(=O)c2nc(-c3cnn(C)c3)nc(N3CCOC[C@@H]3C)c2C(F)(F)F)c(=O)[nH]1 [Example 104, N-[(4,6-dimethyl-2-oxo-1,2-dihydropyridin-3-yl)methyl]-6-[(3S)-3-methylmorpho-lin-4-yl]-2-(1-methyl-1H-pyrazol-4-yl)-5-(trifluoromethyl) pyrimidine-4-carboxamide] | 19.4

Further compounds by falling IC50, results first:

IC50 [µM] | SMILES
19.1 | Cc1cc(C)c(CNC(=O)c2nc(OCCN3CC[C@@H](F)C3)nc(-c3ccnn3C)c2C)c(=O)[nH]1 [Example 103, N-[(4,6-dimethyl-2-oxo-1,2-dihydropyridin-3-yl)methyl]-2-{2-[(3R)-3-fluoropyrrolidin-1-yl]ethoxy}-5-methyl-6-(1-methyl-1H-pyrazol-5-yl)pyrimidine-4-carboxamide]
16.5 | CCC1CCCN1c1ncnc(C(=O)NCc2c(C)cc(C)[nH]c2=O)c1C (centres unmarked) [Example 95, N-[(4,6-dimethyl-2-oxo-1,2-dihydropyridin-3-yl)methyl]-6-(2-ethylpyrrolidin-1-yl)-5-methylpyrimi-dine-4-carboxamide]
16.5 | Cc1cc(C)c(CNC(=O)c2nc(N(C)C)nc(N3CCC[C@@H]3C)c2C)c(=O)[nH]1 [Example 96, 2-(dimethylamino)-N-[(4,6-dimethyl-2-oxo-1,2-dihydropyridin-3-yl)methyl]-5-methyl-6-[(2S)-2-methyplyrrolidin-1-yl]pyrimidine-4-carboxamide]
16 | Cc1cc(C)c(CNC(=O)c2nc(C3CC3)nc(-c3ccnn3C)c2C)c(=O)[nH]1 [Example 94, 2-cyclopropyl-N-[(4,6-dimethyl-2-oxo-1,2-dihydropyridin-3-yl)methyl]-5-methyl-6-(1-methyl-1H-pyrazol-5-yl)pyrimidine-4-carboxamide]

From patent publication US20170152239A1, “BENZAMIDE AND HETEROBENZAMIDE COMPOUNDS” (PFIZER INC., priority 2012, published 2017)
